Here are results for 16 compounds from PubChem BioAssay (NCI).

“And” between values parts separate entries of the source, which are not always exact repeats. Identical values can stand only once.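 Tested at 5 concentrations; 48 h exposure; 96-well plates; endpoints linearly interpolated, else capped at highest concentration. Here, GI50 denotes the concentration required for 50% inhibition of growth. TGI denotes the concentration required for complete inhibition of growth.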

Test systems include OVCAR-4 ovarian; HOP-62 NSCLC; COLO 205 colon; SF-295 CNS; MOLT-4 leukemia; NCI-H522 lung; MDA-MB-435; BT-549 breast; MDA-MB-231 breast; A498 renal.
What all share (assay): NCI tumour cell line growth inhibition, 48 h

Consider `NS(=O)(=O)c1ccc(N2N=C3c4ccccc4CC3C2c2cccs2)cc1` (configuration not stated), for which the GI50 in the assay with OVCAR-4 ovarian was more than 100 µM; in the assay with HOP-62 NSCLC it was 16.9 µM; in the assay with COLO 205 colon, 58.9 µM; with SF-295 CNS it was 16.2 µM; in the assay with MOLT-4 leukemia, 18.9 µM; with NCI-H522 lung, 39.3 µM. Besides, the figures for the GI50 in the assay with MDA-MB-435, with BT-549 breast and in the assay on MDA-MB-231 breast were 19.3 µM, 19.3 µM and 16.8 µM, respectively. The TGI in the assay on OVCAR-4 ovarian was more than 100 µM; in the assay with HOP-62 NSCLC, 36.8 µM; with COLO 205 colon it was more than 100 µM; in the assay on SF-295 CNS, 34.4 µM; in the assay on MOLT-4 leukemia it was more than 100 µM; in the assay with NCI-H522 lung, more than 100 µM. For the same compound, the TGI is 48.1 µM in the assay with MDA-MB-435, 51.7 µM in the assay on BT-549 breast and 40.8 µM in the assay on MDA-MB-231 breast.
Consider `C[Si](C)(C)C(CCCCSc1ccccc1)(Sc1ccccc1)Sc1ccccc1`, for which the TGI with OVCAR-4 ovarian, in the assay on A498 renal, in the assay on COLO 205 colon, in the assay on SF-295 CNS and in the assay with MOLT-4 leukemia was more than 100 µM throughout.
As to `COC(=O)CCC12CCC(=O)C1[C@@H](C(=O)OC)C[C@H]2C(=O)OC` (some centres not stated), the TGI in the assay on OVCAR-4 ovarian, in the assay on HOP-62 NSCLC, with A498 renal, in the assay on COLO 205 colon, in the assay with SF-295 CNS and in the assay on MOLT-4 leukemia was more than 100 µM in each case. Also, the TGI with NCI-H522 lung is more than 100 µM.
Consider `Cc1ccc(S(=O)(=O)N=NC=C2c3ccccc3N(O)c3ccccc32)cc1`, for which the TGI with OVCAR-4 ovarian is 22.8 µM; with HOP-62 NSCLC it was 18.8 µM; with A498 renal it was 13.9 µM; in the assay with COLO 205 colon, 7.99 µM; in the assay on SF-295 CNS, 21.6 µM; in the assay with MOLT-4 leukemia it was 4.11 µM. The TGI in the assay with NCI-H522 lung came to 3.86 µM.
As to `CNc1ccc2ncccc2c1[N+](=O)[O-]`, the TGI in the assay on OVCAR-4 ovarian, in the assay on HOP-62 NSCLC, in the assay with A498 renal, in the assay on SF-295 CNS and in the assay on MOLT-4 leukemia was more than 100 µM each time.
`NNc1cnn(-c2ccccc2)c(=O)c1Cl`: the TGI in the assay on OVCAR-4 ovarian, in the assay with HOP-62 NSCLC, in the assay on A498 renal, with COLO 205 colon, with SF-295 CNS and with MOLT-4 leukemia was more than 100 µM each time. The compound also showed a TGI in the assay with NCI-H522 lung of more than 100 µM.
Consider `CCOC(=O)CN(Cn1cncn1)Cn1cncn1`, for which the TGI in the assay on OVCAR-4 ovarian, in the assay on HOP-62 NSCLC, in the assay on COLO 205 colon, in the assay with SF-295 CNS and with MOLT-4 leukemia was more than 100 µM throughout.
Take `COC(=O)C1C(=O)CC2CCCCC21` (configuration not stated): the TGI in the assay on OVCAR-4 ovarian, in the assay on HOP-62 NSCLC, in the assay on A498 renal, in the assay on COLO 205 colon, in the assay with MOLT-4 leukemia and in the assay on NCI-H522 lung was more than 100 µM in each case.
Consider `N/C(=N\NS(=O)(=O)c1ccccc1)Oc1ccc(Br)cc1Br`, for which the TGI in the assay on OVCAR-4 ovarian, in the assay on HOP-62 NSCLC, in the assay with A498 renal, in the assay on COLO 205 colon, in the assay on SF-295 CNS and in the assay with MOLT-4 leukemia was more than 100 µM in each case. Further, the TGI with NCI-H522 lung was more than 100 µM.
Turning to `CC(C)(O)/C=C/C(=O)[C@](C)(O)[C@H]1[C@H](O)C[C@@]2(C)[C@@H]3CC=C4[C@@H](C[C@H](O)C(=O)C4(C)C)[C@]3(C)C(=O)C[C@]12C`, the GI50 was 0.161 µM and 0.891 µM with OVCAR-4 ovarian; 0.337 µM with HOP-62 NSCLC; 0.0909 µM with A498 renal; 0.0919 µM in the assay on COLO 205 colon; 0.264 µM in the assay on SF-295 CNS; 0.709 µM with MOLT-4 leukemia. The GI50 with NCI-H522 lung is 0.069 µM. The TGI with HOP-62 NSCLC is 0.699 µM and 0.547 µM; with A498 renal it was 0.244 µM and 0.115 µM; in the assay with SF-295 CNS it was 0.629 µM and 2.61 µM; in the assay on MOLT-4 leukemia, 11.8 µM; in the assay with NCI-H522 lung, 0.453 µM and 0.775 µM.
In the case of `Cc1ccc(Oc2ccccc2N)cc1`, the TGI with OVCAR-4 ovarian is more than 100 µM; in the assay on HOP-62 NSCLC, more than 100 µM; with A498 renal, more than 100 µM; in the assay with COLO 205 colon, 19.2 µM; with SF-295 CNS, more than 100 µM; in the assay on MOLT-4 leukemia it was more than 100 µM.
Take `O=C(C#Cc1ccccc1)N1c2ccccc2CC1c1c[nH]c2ccccc12` (configuration not stated): the TGI came to 69.6 µM in the assay on OVCAR-4 ovarian; 26.9 µM with HOP-62 NSCLC; 73 µM in the assay on A498 renal; 31.6 µM in the assay on COLO 205 colon; 49.7 µM in the assay on SF-295 CNS; 46.6 µM in the assay on MOLT-4 leukemia. Besides, in the assay on NCI-H522 lung, the TGI came out at 24.1 µM.
`O=C1C(=O)N(c2ccc(Cl)cc2)C(=O)C(=O)C1c1nc2ccccc2s1`: the TGI in the assay with OVCAR-4 ovarian, with HOP-62 NSCLC, with COLO 205 colon, in the assay with SF-295 CNS, in the assay on MOLT-4 leukemia and in the assay with NCI-H522 lung was more than 100 µM each time.
In the case of `O=c1cccccc1NCCCCCCCNc1cccccc1=O`, the TGI with OVCAR-4 ovarian was more than 100 µM; in the assay on HOP-62 NSCLC it was more than 100 µM; in the assay on COLO 205 colon it was more than 100 µM; with SF-295 CNS, more than 100 µM; in the assay on MOLT-4 leukemia it was 53.4 µM; in the assay with NCI-H522 lung it was 55.2 µM.
Regarding `COc1ccc(-c2cc(C(=O)Nc3cc(C(F)(F)F)cc(C(F)(F)F)c3)c3ccccc3n2)cc1`, the TGI in the assay with OVCAR-4 ovarian was more than 100 µM; with HOP-62 NSCLC, 30.3 µM; in the assay on A498 renal it was 40 µM; with COLO 205 colon it was 28.4 µM; in the assay with SF-295 CNS, 32.5 µM; in the assay with MOLT-4 leukemia it was more than 100 µM.
Consider `COC(=O)C1=C(CS(=O)c2ccc([N+](=O)[O-])cc2[N+](=O)[O-])C2C=CC1C2` (configuration not stated), for which the TGI in the assay on OVCAR-4 ovarian was 67.1 µM; with HOP-62 NSCLC it was more than 100 µM; in the assay with A498 renal, more than 100 µM; in the assay with COLO 205 colon, 41.5 µM; with SF-295 CNS, more than 100 µM; in the assay on MOLT-4 leukemia, 59.8 µM. Besides, the TGI in the assay on NCI-H522 lung is 27.3 µM.
